The subject of data set [1] is serum uric acid levels in patients with hyperuricemia. Briefly: Randomized, double blind, placebo controlled clinical study on serum uric acid levels. Format: in vivo, human. Particulars: extracts 500 mg BID oral, febuxostat 40 mg OD, Mean±SD. On the procedure: A randomized, double blind, placebo controlled, parallel-group study was performed to evaluate the effect of Terminalia chebula and Terminalia bellerica in comparison to Febuxostat and a placebo on serum uric acid levels in patients with hyperuricemia. The present study was a prospective, randomized, double blinded, placebo controlled trial. A total of 52 patients were enrolled to receive the study treatment in a randomized manner. The study was approved by the Institutional Ethics Committee and all the subjects gave written informed consent prior to their participation in the study. Hyperuricemia patients of either gender aged between 18 and 70 years were selected, with serum uric acid level ≧6.0 mg/dL and ≦12.0 mg/dL after having stopped all uric acid-lowering therapy for at least 10 days. Patients who were willing to comply with the requirements of the study and to give voluntary, written informed consent were enrolled into the study. Patients with a gout flare during screening or baseline visit were excluded. Patients currently using aspirin or other NSAIDS, diuretics, other medications with known urate-lowering effects were also excluded from the study. Patients with history or presence of nephrolithiasis or uncontrolled hypertension or diabetes, hepatic and renal impairment, pregnant or lactating females or secondary hyperuricemia (e.g. due to myeloproliferative disorder, or organ transplant) were excluded. After screening, all the eligible patients were randomized to either of the four treatment groups in a double blinded fashion for duration of 8 weeks, prospectively 12 weeks. Group 1—Terminalia chebula 500 mg—1 capsule of 500 mg orally twice a day (BID) after food. Group 2—Terminalia bellerica 500 mg—1 capsule of 500 mg orally twice a day (BID) after food. Group 3—Febuxostat—1 tablet of 40 mg (encapsulated in a similar capsule to that of Terminalia chebula/Terminalia bellerica/placebo capsules) once daily (OD) orally in the morning after food and an identical placebo capsule in the evening after food. […] At each visit they were evaluated for efficacy measurements and safety assessments. Serum uric acid levels were measured at baseline, end of 4 weeks, and end of 8 weeks. […] The subsequent 2 visits were scheduled at 4 weeks interval (visit 3—after 4 weeks of treatment, visit 4—after 8 weeks of treatment), vital signs, general examination; serum uric acid levels were measured. Pill count for study medication was evaluated. […] Study data is expressed as Mean±SD. Primary and secondary outcome measures were analyzed as the mean percentage reduction and absolute change in serum uric acid levels from baseline to 4 weeks, 8 weeks, and (prospectively) 12 weeks of treatment. […]

For another data set, the system named is hyperuricemic patients. Briefly: Safety and tolerability assessment in the clinical study. Particulars: 8 weeks treatment; 13 patients per group; extracts 500 mg BID, febuxostat 40 mg OD. Format: in vivo, human. On the procedure:
Secondary objective: To evaluate the safety and tolerability of Terminalia chebula and Terminalia bellerica in hyperuricemic patients.
Safety lab investigations for hematological, hepatic and renal biochemical parameters were done at baseline and at the end of the study (8 weeks) and also as and when required (in case of any adverse drug reaction (ADR)). Subjects were interviewed for the presence of ADR and the same was recorded in the case report form (CRF). Compliance to therapy was assessed by pill count method.
The subsequent 2 visits were scheduled at 4 weeks interval (visit 3—after 4 weeks of treatment, visit 4—after 8 weeks of treatment), vital signs, general examination; serum uric acid levels were measured. Pill count for study medication was evaluated. At the (prospective) conclusion of the study, Visit 5 (after 12 weeks post treatment), vital signs, general examination, serum uric acid, routine safety lab investigations will be performed. […] Adverse Effects/SAE monitoring would be done throughout the course of study. Safety lab parameters will be done before and after treatment and as and when required. […]
2. Measurements of Tolerability will be assessed at the end of 8 weeks/12 weeks as: Good—no side effects; Fair—mild to moderate side effects; and/or Poor—severe side effects and withdrawal of therapy.

The test system of another data set is COX-1. Particulars: cited from earlier work.
A further data set has as its target T1, COX-2 (Homo sapiens, UniProt P35354).
T1 sequence (P35354 18-604): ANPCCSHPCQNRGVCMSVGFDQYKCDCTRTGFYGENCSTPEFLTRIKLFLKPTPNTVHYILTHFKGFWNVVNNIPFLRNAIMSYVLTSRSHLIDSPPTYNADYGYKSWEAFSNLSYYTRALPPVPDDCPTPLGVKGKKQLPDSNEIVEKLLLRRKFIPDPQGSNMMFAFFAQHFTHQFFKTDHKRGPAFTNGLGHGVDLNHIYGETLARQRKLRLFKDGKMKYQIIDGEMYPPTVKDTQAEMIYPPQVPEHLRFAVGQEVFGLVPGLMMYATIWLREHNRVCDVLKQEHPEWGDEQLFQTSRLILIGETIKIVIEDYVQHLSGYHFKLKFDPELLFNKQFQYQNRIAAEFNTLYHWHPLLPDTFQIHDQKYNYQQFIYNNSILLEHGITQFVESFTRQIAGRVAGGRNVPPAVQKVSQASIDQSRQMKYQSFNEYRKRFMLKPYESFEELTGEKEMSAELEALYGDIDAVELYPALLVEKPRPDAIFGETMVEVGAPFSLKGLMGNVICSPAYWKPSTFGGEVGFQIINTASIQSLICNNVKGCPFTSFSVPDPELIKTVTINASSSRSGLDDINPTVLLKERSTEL
Particulars: cited from earlier work.

A further data set has as its system 5-LOX. Particulars: cited from earlier work.
In another data set the target is maltase. Particulars: reversible and non-competitive inhibitor; read-out: K(i) value, maltase; cited from earlier work.
A further data set deals with HepG2 cells. Particulars: cited from earlier work.
A further data set deals with xanthine oxidase (XO). Briefly: Superoxide radical scavenging assay by NBT hypoxanthine/XO method. Particulars: for % Control (superoxide generation by XO): water blank = 100. Format: biochemical. On the procedure:
One T. chebula (TC) based extract was tested at three different dilutions of 5, 25 and 50 μg/mL, and one T. bellerica (TB) based extract was tested at the same three dilutions. Standard positive control was allopurinol (AP) tested at 1, 5 and 10 μg/mL. […] Stock solutions of test materials were prepared at 20 mg/ml in water (TB and TC) or immediately prior to the experiment. Further dilutions were made in type I sterile water and the effect of test materials on XO-mediated free radical (superoxide) generation was assessed as previously described ([…] al., 2008), using hypoxanthine/XO/NBT (tetrazolium salt) system with the reaction product (formazan) followed at 570 nm with the BioRad microplate spectrophotometer 3550-UV. Allopurinol (AP) was the positive control, double-distilled water was the negative control (blank). P values representing statistical significance were calculated using paired t-test and threshold of statistical significance was fixed at p=0.05 and at least 15% difference as compared to the water control.

[2] abbreviates: from baseline, negative = decrease.

Values joined by “and” are separate entries in the source; they are usually repeats but may differ in a detail not shown here. Identical values can stand only once. Marks after values point to notes of the source that are not given here.

Consider `Cc1nc(-c2ccc(OCC(C)C)c(C#N)c2)sc1C(=O)O` [Febuxostat], for which, in data set [1] (13 patients per group), the “Serum Uric Acid level at the end of 4 weeks” value worked out at 7.23 ± 0.72 mg/dL and the “Serum Uric Acid level at the end of 8 weeks” value is 6.08 ± 0.6 mg/dL. Also, in data set [1] (setting [2]), the “Mean Percentage Reduction in Serum Uric Acid Level after 8 weeks” value is −29.58 ± 5.74 % and the “Mean Percentage Reduction in Serum Uric Acid at the end of 4 weeks” value is reported as −16.31 ± 5.32*^NS %. Also, the Adverse effects reported entry in the data set on hyperuricemic patients was “Two patients in the Febuxostat group had elevated mildly elevated total bilirubin and 1 patient had complained of nausea and vomiting”.
For “beta-1-O-galloyl-2,4-chebuloyl-3,6-(R)-hexahydroxydiphenoyl-D-glucose [Chebulagic acid]”, the results for the half-inhibitory concentration (IC50) in the data set with COX-1, at COX-2 and in the data set on 5-LOX were 15 ± 0.288 µM, 0.92 ± 0.011 µM and 2.1 ± 0.057 µM, respectively. Moreover, on maltase, the Ki was 6.6 µM. In addition, the “Enhancement of the cytotoxicity of doxorubicin” value in the data set with HepG2 cells was 20 fold.
For `Oc1ncnc2[nH]ncc12` [AP, allopurinol], the “ED50 (dose required for 50% inhibition of XO)” value with xanthine oxidase (XO) was determined as 6 µg/mL. Moreover, the figures for the “% Control (superoxide generation by XO)” value in the data set on xanthine oxidase (XO) (test material at 1 μg/ml), in the data set with xanthine oxidase (XO) (test material at 5 μg/ml) and in the data set on xanthine oxidase (XO) (test material at 10 μg/ml) were 89%, 54% and 43%, respectively.

The record behind these values is US9750778B2, “Terminalia chebula and Terminalia bellirica extracts for inhibition of xanthine oxidase” (priority 2013, dated 2017).
